{"source": "patent US11273217B2", "about": "“Cancer treatment composition combining anti-CD26 antibody and other anticancer agent” (Y's AC Co., Ltd., priority 2015, dated 2022)", "molecules": {"B1": {"name": "Y-TR1 SPDP (conjugate)", "heavy": "EVQLVESGAGVKQPGGTLRLTCTASGFSLTTYGVHWVRQAPGKGLEWVGVIWGDGRTDYDAAFMSRVTISKDTSKSTVYLQMNSLRAEDTAVYYCMRNRHDWFDYWGQGTTVTVSSASTKGPSVFPLAPSSKSTSGGTAALGCLVKDYFPEPVTVSWNSGALTSGVHTFPAVLQSSGKLSSVVTVPSSSLGTQTYICNVNHKPSNTKVDKKVEPKSCDKTHTCPPCPAPELLGGPSVFLFPPKPKDTLMISRTPEVTCVVVDVSHEDPEVKFNWYVDGVEVHNAKTKPREEQYNSTYRVVSVLTVLHQDWLNGKEYKCKVSNKALPAPIEKTISKAKGQPREPQVYTLPPSRDELTKNQVSLTCLVKGFYPSDIAVEWESNGQPENNYKTTPPVLDSDGSFFKKLTVDKSRWQQGNVFSCSVMHEALHNHYTQKSLSLSPGK", "light": "DILLTQSPSSLSATPGERATITCRASQGIRNNLNWYQQKPGQAPRLLIYYSSNLQSGVPSRFSGSGSGTDFTLTISRLQPEDVAAYYCQQSIKLPFTFGSGTKVEIKRTVAAPSVFIFPPSDEQLKSGTASVVCLLNNFYPREAKVQWKVDNALQSGNSQESVTEQDSKDSTYSLSSTLTLSKADYEKHKVYACEVTHQGLSSPVTKSFNRGEC"}}, "format_in_all_cases": "cell-based", "key": {"[1]": {"system": "MSTO-wt (CD26-negative malignant mesothelioma cell line MSTO-211H)", "assay": "WST-1 cytotoxicity assay, MSTO wt", "conditions": "48 hours", "from_the_text": "(§1) A CD26-negative malignant mesothelioma cell line MSTO-211H (MSTO) (American Type Cell Culture Collection, Manassas, Va.) was transfected with CD26 gene, which was designated as MSTO clone 12 (Aoe K et al., Clin Cancer Res. (2012) 18: 1447-56). A CD26-negative T-cell leukemia cell line Jurkat (American Type Cell Culture Collection, Manassas, Va.) was transfected with CD26 gene, which was designated as Jurkat CD26(+) (Tanaka T et al., Proc Natl Acad Sci USA (1993) 90: 4586-90). A CD26-positive cell line JMN established from malignant mesothelioma was kindly provided by professor Chikao Morimoto, the Institute of Medical Science, the University of Tokyo. All the cell lines were cultured in RPMI medium (catalog No. 11875-093, Life Technologies Corp., Carlsbad, Calif.) containing 10% heat-inactivated fetal bovine serum (FBS, Life Technologies Corp., Carlsbad, Calif.), ABPC (100 μg/ml), and streptomycin (100 μg/ml) at 37° C. under 5% CO2 environment.\n(§2) WST-1 assay was conducted according to the manual provided by the manufacturer. The background absorbance of each sample at 630 nm was subtracted from the measurement value thereof at 450 nm. The experiment was conducted in triplicate, and typical results are shown."}, "[2]": {"system": "JMN (CD26-positive malignant mesothelioma cell line)", "assay": "WST-1 cytotoxicity assay, JMN", "conditions": "48 hours", "from_the_text": "as §1\n(§3) WST-1 assay was conducted according to the manual provided by the manufacturer. The background absorbance of each sample at 630 nm was subtracted from the measurement value thereof at 450 nm."}, "[3]": {"system": "Jurkat CD26(+) (T-cell leukemia cell line)", "assay": "WST-1 cytotoxicity assay, Jurkat CD26(+)", "conditions": "48 hours", "from_the_text": "as §1, §3"}, "[4]": {"system": "Jurkat CD26(−) (T-cell leukemia cell line)", "assay": "WST-1 cytotoxicity assay, Jurkat CD26(−)", "conditions": "48 hours", "from_the_text": "as §1, §2"}, "[5]": {"system": "MSTO clone 12 (CD26-positive malignant mesothelioma cell line)", "assay": "WST-1 cytotoxicity assay, MSTO clone 12", "from_the_text": "as §1, §3"}, "[6]": {"system": "MESO1 cells", "assay": "Boyden chamber invasion assay, MESO1", "conditions": "24 hours; for action on cell invasion (in words): cisplatin at 10 and 30 μM, pemetrexed even at 30 μM", "description": "(§4) MESO1 cells or H2452 cells (2.5×10^4 cells/well) were inoculated to a Boyden chamber. One hour later, cisplatin (5, 10, or 30 μM) or pemetrexed (1, 10, or 30 μM) was added thereto (n=5), followed by Boyden chamber invasion assay. 24 hours after the cell inoculation, invasive cells were stained with Diff-Quik-staining kit. Significant difference was tested by two-tailed t-test (vs Cont).\n(§5) MESO1 cells or H2452 cells (2.5×10^4 cells/well) were inoculated to a Boyden chamber. One hour later, the combination of cisplatin (0, 3, or 10 μM) and pemetrexed (0, 10, or 30 μM) was added thereto (n=5), followed by Boyden chamber invasion assay. 24 hours after the cell inoculation, invasive cells were stained with Diff-Quik-staining kit. Significant difference was tested by two-tailed t-test (vs Cont).\nas §5, with “MESO1” for “MESO1 cells or H2452”, “YS110” for “pemetrexed”, “20 μg/ml)” for “30 μM)”, “Cont). Next, the interaction of YS110 with cisplatin-pemetrexed concomitant use was studied. The interaction was analyzed by two-way ANOVA.” for “Cont).”"}, "[7]": {"system": "MESO1 cells", "assay": "MTT cell growth assay, MESO1", "conditions": "10^−9 to 10^−4 M; day 2", "description": "(§6) MESO1 or H2452 cells (2×10^3 cells/well) were inoculated to a 96-well plate. One hour later, cisplatin or pemetrexed was added thereto at 10^−9, 10^−8, 10^−7, 10^−6, 10^−5, or 10^−4 M (n=6). At day 2, MTT assay was conducted.\nMESO1 cells (2×10^3 cells/well) were inoculated to a 96-well plate. One hour later, the combination of 0.3, 3, or 10 μM cisplatin and 0.1, 3, or 10 μg/ml YS110, or the combination of 0.03, 0.3, or 1 μM pemetrexed and 0.1, 3, or 10 μg/ml YS110 was added thereto. At day 2, MTT assay was conducted. Significant difference was tested by two-tailed t-test (vs Cont).\n(§7) MESO1 cells (2×10^3 cells/well) or H2452 cells (2×10^3 cells/well) were inoculated to a 96-well plate. One hour later, 0.3 μM cisplatin-0.1 μM pemetrexed combination, or YS110 (10 μg/ml) plus the 0.3 μM cisplatin-0.1 μM pemetrexed combination was added thereto (n=6). At day 2, MTT assay was conducted. Significant difference was tested by two-tailed t-test (vs Cont).\n(§8) Gemcitabine was studied for its effect on the growth of a mesothelioma cell line. A mesothelioma cell line MESO1, JMN, H2452, or H226 (2×10^3 cells/well) was inoculated to a 96-well plate. One hour later, gemcitabine (10^−9, 10^−8, 10^−7, 10^−6, 10^−5, or 10^−4 M) was added thereto (N=6). 2 days later, MTT assay was conducted. Significant difference was tested by two-tailed t-test (vs Cont).\n(§9) MESO1 cells (2×10^3 cells/well) were inoculated to a 96-well plate. One hour later, gemcitabine (0, 10^−8, 3×10^−8, or 10^−7 M) and YS110 (0, 1, 3, or 10 μg/ml) were added thereto in combination. At day 2, MTT assay was conducted. Significant difference was tested by two-tailed t-test (vs Cont). Next, interaction in concomitant use of medications was studied (n=6). The interaction between YS110 and gemcitabine used concomitantly was analyzed by two-way ANOVA.\n(§10) MESO1, JMN, H2452 or H226 cells (2×10^3 cells/well were inoculated to a 96-well plate. One hour later, 3×10^−8 M or 10^−7 M gemcitabine was added thereto by concomitant use with the combination of cisplatin (0, 0.1, 0.3, or 1 μM) and pemetrexed (0, 0.03, 0.1, or 0.3 μM) (n=6). At day 2, MTT assay was conducted.\n(§11) The growth inhibitory effects of cisplatin (10^−9 to 10^−4 M) and pemetrexed (10^−9 to 10^−4 M) were compared using the MESO1 and JMN cell lines.\n(§12) The growth inhibitory effect of gemcitabine (10^−9 to 10^−4 M) was compared using MESO1, H2452, JMN, and H226 cell lines."}, "[8]": {"system": "H2452 cells", "assay": "Boyden chamber invasion assay, H2452", "conditions": "24 hours; for action on cell invasion (in words): cisplatin at 10 and 30 μM, pemetrexed even at 30 μM", "description": "as §4, §5\nas §5, with “H2452” for “MESO1 cells or H2452”, “YS110” for “pemetrexed”, “20 μg/ml)” for “30 μM)”, “Cont). Next, the interaction of YS110 with cisplatin-pemetrexed concomitant use was studied. The interaction was analyzed by two-way ANOVA.” for “Cont).”"}, "[9]": {"system": "H2452 cells", "assay": "MTT cell growth assay, H2452", "conditions": "10^−9 to 10^−4 M; day 2", "description": "as §6\nH2452 cells (2×10^3 cells/well) were inoculated to a 96-well plate. One hour later, the combination of 0.03, 0.3, or 1 μM cisplatin and 0.1, 3, or 10 μg/ml YS110, or the combination of 0.01, 0.1, or 0.3 μM pemetrexed and 0.1, 3, or 10 μg/ml YS110 was added thereto (n=6). At day 2, MTT assay was conducted. Significant difference was tested by two-tailed t-test (vs Cont).\nas §7, §8\nas §9, with “H2452” for “MESO1”\nas §10, §12"}, "[10]": {"system": "JMN cells", "assay": "MTT cell growth assay, JMN", "conditions": "MESO1 (CD9+) vs JMN (CD9−); 10^−9 to 10^−4 M", "description": "as §8\nas §9, with “JMN” for “MESO1”, “3×10^−10, 10^−9,” for “10^−8, 3×10^−8,”, “3×10^−8” for “10^−7”\nas §10, §11, §12"}, "[11]": {"conditions": "pemetrexed even at 30 μM with cisplatin 10 μM"}}, "note": "Where two headings read alike, the source gives them in different places."}
{"molecule": "CC(C)[C@]12O[C@H]1[C@@H]1O[C@@]13C1(C)CCC4=C(COC4=O)[C@@H]1C[C@@H]1O[C@@]13[C@@H]2O", "note": "(stereo partly drawn) [Triptolide, (3bS,4aS,5aS,6R,6aR,7aS,7bS,8aS,8bS)-6-hydroxy-6a-isopropyl-8b-methyl-3b,4,4a,6,6a,7a,7b,8b,9,10-decahydrotrisoxireno[6,7:8a,9:4b,5]phenanthro[1,2-c]furan-1(3H)-one]", "values": [{"measurement": "IC50", "setting": "[1]; Homo sapiens, MSTO-211H, MSTO wt, CD26 (−)", "value": 10, "unit": "nM"}, {"measurement": "cytotoxicity (in words)", "setting": "[1]; MSTO-wt", "value": "dose-dependent toxic effect"}, {"measurement": "cytotoxicity (in words)", "setting": "[2]", "value": "dose-dependent toxic effect"}, {"measurement": "IC50", "setting": "[2]; CD26 (+)", "value": 15, "unit": "nM"}, {"measurement": "IC50", "setting": "[3]; Homo sapiens, Jurkat CD26 (+)", "value": 6, "unit": "nM"}, {"measurement": "cytotoxicity (in words)", "setting": "[3]; Jurkat CD26(+)", "value": "dose-dependent toxic effect"}, {"measurement": "IC50", "setting": "[4]; Homo sapiens, Jurkat (−)", "value": "> 100", "unit": "nM"}, {"measurement": "cytotoxicity (in words)", "setting": "[4]; Jurkat", "value": "dose-dependent toxic effect"}, {"measurement": "IC50", "setting": "[5]; MSTO clone12, CD26 (+), 48 hours, read-out: IC50", "value": 10, "unit": "nM"}, {"measurement": "cytotoxicity (in words)", "setting": "[5]; MSTO clone 12, 48 hours", "value": "dose-dependent toxic effect"}]}
{"molecule": "N.N.[Cl][Pt][Cl]", "note": "[cisplatin]", "values": [{"measurement": "action on cell invasion (in words)", "setting": "[6]", "value": "suppressed cell invasion"}, {"measurement": "cell growth, single drug dose-response (in words)", "setting": "[7]", "value": "suppressed the growth"}, {"measurement": "action on cell invasion (in words)", "setting": "[8]", "value": "suppressed cell invasion"}, {"measurement": "cell growth, single drug dose-response (in words)", "setting": "[9]", "value": "suppressed the growth"}, {"measurement": "growth inhibitory effect compared between MESO1 and JMN", "setting": "[10]", "value": "did not differ"}]}
{"molecule": "Nc1nc2[nH]cc(CCc3ccc(C(=O)N[C@@H](CCC(=O)O)C(=O)O)cc3)c2c(=O)[nH]1", "note": "[pemetrexed]", "values": [{"measurement": "action on cell invasion (in words)", "setting": "[6]", "value": "no inhibitory action on invasion"}, {"measurement": "effect of pemetrexed on the cell invasion inhibitory effect of cisplatin", "setting": "[6]; [11]", "value": "did not potentiate"}, {"measurement": "cell growth, single drug dose-response (in words)", "setting": "[7]", "value": "suppressed the growth"}, {"measurement": "action on cell invasion (in words)", "setting": "[8]", "value": "no inhibitory action on invasion"}, {"measurement": "effect of pemetrexed on the cell invasion inhibitory effect of cisplatin", "setting": "[8]; [11]", "value": "did not potentiate"}, {"measurement": "cell growth, single drug dose-response (in words)", "setting": "[9]", "value": "suppressed the growth"}, {"measurement": "growth inhibitory effect compared between MESO1 and JMN", "setting": "[10]", "value": "did not differ"}]}
{"molecule": "B1", "values": [{"measurement": "IC50", "setting": "[5]; MSTO clone12, CD26 (+), 48 hours", "value": 38, "unit": "µg/mL"}, {"measurement": "IC50", "setting": "[5]; Table 5: comparison among 3 types of linkers, MSTO clone 12", "value": 35, "unit": "µg/mL"}]}
